What was measured:
[1] = molecular target: Metabotropic glutamate receptor 5 (Rattus norvegicus, UniProt P31424); assay: Negative allosteric modulation of rat mGlu5 receptor expressed in HEK293A cells assessed as inhibition of glutamate-induced calcium mobilization preincubated for 140 seconds prior to glutamate-stimulation measured after 60 seconds; format: functional, cell-based, HEK293-A
Plasma [2] = assay: AUC in CD-1 mouse plasma at 10 mg/kg, ip by LC-MS/MS analysis; format: ADME, organism-based; parameters: dose 10 mg/kg, route intraperitoneal; conditions: in vivo
Plasma [3] = assay: Cmax in CD-1 mouse plasma at 10 mg/kg, ip by LC-MS/MS analysis; format: ADME, organism-based; parameters: dose 10 mg/kg, route intraperitoneal; conditions: in vivo
Brain [4] = assay: AUC in CD-1 mouse brain at 10 mg/kg, ip by LC-MS/MS analysis; format: ADME, organism-based; parameters: dose 10 mg/kg, route intraperitoneal; conditions: in vivo
Cytochrome P450 3A4 = Cytochrome P450 3A4 (Homo sapiens, UniProt P08684); assay: Inhibition of CYP3A4 in human liver microsomes in presence of NADPH; format: ADME, Microsome
[5] = Ratio of drug level in brain to plasma in CD-1 mouse at 10 mg/kg, ip by LC-MS/MS analysis; format: ADME, organism-based; parameters: dose 10 mg/kg, route intraperitoneal; conditions: brain and plasma, read-out: BPR
Brain [6] = assay: Fraction unbound in mouse brain homogenates by equilibrium dialysis technique; format: ADME, tissue-based; conditions: brain homogenate
[7] = Cmax in CD-1 mouse brain at 10 mg/kg, ip by LC-MS/MS analysis; format: ADME, organism-based; parameters: dose 10 mg/kg, route intraperitoneal
Plasma [8] = assay: Tmax in CD-1 mouse plasma at 10 mg/kg, ip by LC-MS/MS analysis; format: ADME, organism-based; parameters: dose 10 mg/kg, route intraperitoneal; conditions: in vivo
Brain [9] = assay: Tmax in CD-1 mouse brain at 10 mg/kg, ip by LC-MS/MS analysis; format: ADME, organism-based; parameters: dose 10 mg/kg, route intraperitoneal; conditions: in vivo
[10] = molecular target: Metabotropic glutamate receptor 5 (Rattus norvegicus) (UniProt P31424); assay: Negative allosteric modulation of rat mGlu5 receptor expressed in HEK293A cells assessed as inhibition of glutamate-induced calcium mobilization at 30 uM preincubated for 140 seconds prior to glutamate-stimulation measured after 60 seconds relative to glutamate; format: functional, cell-based; conditions: HEK293-A
Chain of Metabotropic glutamate receptor 5 (Rattus norvegicus) (P31424 21-1203 limits assumed): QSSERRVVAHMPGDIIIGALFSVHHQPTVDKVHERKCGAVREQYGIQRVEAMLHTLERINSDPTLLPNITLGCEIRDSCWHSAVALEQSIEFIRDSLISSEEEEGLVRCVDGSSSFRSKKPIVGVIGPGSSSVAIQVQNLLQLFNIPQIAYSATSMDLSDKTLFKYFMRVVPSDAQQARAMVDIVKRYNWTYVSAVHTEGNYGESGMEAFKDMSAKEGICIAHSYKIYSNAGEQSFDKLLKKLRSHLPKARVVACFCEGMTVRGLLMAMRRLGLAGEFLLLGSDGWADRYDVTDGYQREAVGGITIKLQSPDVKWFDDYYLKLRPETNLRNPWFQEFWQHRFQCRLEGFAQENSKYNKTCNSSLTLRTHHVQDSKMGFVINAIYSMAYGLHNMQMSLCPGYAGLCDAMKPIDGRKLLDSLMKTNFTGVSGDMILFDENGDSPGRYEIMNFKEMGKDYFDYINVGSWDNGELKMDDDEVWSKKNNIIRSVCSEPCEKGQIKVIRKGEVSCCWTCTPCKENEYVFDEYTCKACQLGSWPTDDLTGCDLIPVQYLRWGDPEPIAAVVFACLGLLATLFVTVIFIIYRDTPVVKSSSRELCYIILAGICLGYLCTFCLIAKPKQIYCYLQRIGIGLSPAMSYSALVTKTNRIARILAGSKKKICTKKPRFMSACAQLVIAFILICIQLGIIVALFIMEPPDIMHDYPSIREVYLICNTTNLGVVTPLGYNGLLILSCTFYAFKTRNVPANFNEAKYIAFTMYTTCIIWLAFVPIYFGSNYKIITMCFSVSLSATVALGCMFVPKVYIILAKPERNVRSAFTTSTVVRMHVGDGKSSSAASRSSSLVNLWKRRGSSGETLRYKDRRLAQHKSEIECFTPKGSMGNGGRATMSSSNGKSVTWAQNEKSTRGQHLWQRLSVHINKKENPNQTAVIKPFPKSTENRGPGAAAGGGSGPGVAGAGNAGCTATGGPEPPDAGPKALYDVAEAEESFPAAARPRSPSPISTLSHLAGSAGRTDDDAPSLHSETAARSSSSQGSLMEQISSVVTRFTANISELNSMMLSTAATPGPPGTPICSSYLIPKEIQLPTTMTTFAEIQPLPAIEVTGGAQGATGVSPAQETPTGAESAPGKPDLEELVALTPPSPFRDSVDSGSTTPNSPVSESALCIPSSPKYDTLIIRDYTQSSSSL

Chain of Cytochrome P450 3A4 (P08684 whole entry): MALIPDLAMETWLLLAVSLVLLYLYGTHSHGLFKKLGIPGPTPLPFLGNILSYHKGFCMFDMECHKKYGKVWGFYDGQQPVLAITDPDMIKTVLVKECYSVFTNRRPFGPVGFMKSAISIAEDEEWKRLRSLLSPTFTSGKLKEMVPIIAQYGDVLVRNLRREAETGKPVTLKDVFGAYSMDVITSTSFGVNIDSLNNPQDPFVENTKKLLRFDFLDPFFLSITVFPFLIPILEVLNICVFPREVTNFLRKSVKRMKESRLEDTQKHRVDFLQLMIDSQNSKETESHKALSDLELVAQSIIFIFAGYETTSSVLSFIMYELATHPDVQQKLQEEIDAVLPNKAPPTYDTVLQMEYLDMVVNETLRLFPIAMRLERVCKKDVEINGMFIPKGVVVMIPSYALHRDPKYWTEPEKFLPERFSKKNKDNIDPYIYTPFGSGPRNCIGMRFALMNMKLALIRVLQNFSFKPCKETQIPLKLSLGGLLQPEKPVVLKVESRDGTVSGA
Chain of Metabotropic glutamate receptor 5 (P31424 whole entry): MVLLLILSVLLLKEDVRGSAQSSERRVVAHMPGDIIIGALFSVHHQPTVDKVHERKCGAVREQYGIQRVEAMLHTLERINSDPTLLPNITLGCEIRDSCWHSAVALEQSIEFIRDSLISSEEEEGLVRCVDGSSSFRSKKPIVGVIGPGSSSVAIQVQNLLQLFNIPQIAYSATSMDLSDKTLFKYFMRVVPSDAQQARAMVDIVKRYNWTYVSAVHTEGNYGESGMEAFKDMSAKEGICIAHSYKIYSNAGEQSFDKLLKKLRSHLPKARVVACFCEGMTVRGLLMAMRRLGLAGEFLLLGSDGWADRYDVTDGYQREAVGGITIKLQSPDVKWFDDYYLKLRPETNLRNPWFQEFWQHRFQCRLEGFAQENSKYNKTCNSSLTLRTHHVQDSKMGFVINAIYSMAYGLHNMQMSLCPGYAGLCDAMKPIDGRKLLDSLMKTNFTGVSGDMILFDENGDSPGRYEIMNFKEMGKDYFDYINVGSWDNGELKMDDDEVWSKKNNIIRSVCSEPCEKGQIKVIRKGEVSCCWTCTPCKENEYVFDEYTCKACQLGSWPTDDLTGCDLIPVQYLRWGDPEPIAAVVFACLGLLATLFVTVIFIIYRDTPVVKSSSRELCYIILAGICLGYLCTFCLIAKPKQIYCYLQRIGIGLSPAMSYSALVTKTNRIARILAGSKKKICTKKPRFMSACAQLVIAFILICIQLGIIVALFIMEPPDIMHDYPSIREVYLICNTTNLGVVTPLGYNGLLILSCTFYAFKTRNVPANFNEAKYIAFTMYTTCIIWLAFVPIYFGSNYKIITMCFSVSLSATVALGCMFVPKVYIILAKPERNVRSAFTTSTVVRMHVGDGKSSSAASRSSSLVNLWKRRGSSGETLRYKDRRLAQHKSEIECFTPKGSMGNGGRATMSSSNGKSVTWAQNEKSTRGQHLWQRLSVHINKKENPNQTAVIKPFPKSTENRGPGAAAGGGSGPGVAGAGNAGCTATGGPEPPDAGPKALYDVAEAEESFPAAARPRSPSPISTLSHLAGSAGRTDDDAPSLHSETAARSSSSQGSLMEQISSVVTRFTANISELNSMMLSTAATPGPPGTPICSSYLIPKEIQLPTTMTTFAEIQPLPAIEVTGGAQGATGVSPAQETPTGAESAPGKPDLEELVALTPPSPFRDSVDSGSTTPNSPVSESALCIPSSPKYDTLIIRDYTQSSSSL

Structure (SMILES)	%max [10] [%]	IC50 [1] [nM]	also measured
O=C(Nc1ccc(F)c(C(F)F)n1)c1cc(Cl)cc(Oc2cncnc2)c1	–	502	–
Cc1nc(NC(=O)c2cc(F)cc(Oc3cncnc3)c2)sc1F	–	54	–
O=C(Nc1ccc(F)cn1)c1cc(Cl)cc(Oc2cncnc2)c1	–	–	AUC (Plasma [2]): 391 ng·h/mL; Cmax (Plasma [3]): 303 ng/mL; AUC (Brain [4]): 365 ng·h/g; IC50 (Cytochrome P450 3A4): 6200 nM; Kp [5]: 0.93; Fu (Brain [6]): 0.08; Cmax [7]: 311 ng/g; Tmax (Plasma [8]): 30 min; Tmax (Brain [9]): 15 min
O=C(Nc1nccs1)c1cc(F)cc(Oc2cncnc2)c1	–	1790	–
Cc1cc(Oc2cncnc2)cc(C(=O)Nc2ccc(F)cn2)c1	–	19	–
Cc1csc(NC(=O)c2cccc(Oc3cccnc3)c2)n1	–	772	–
Cc1cc(NC(=O)c2cc(Cl)cc(Oc3cncnc3)c2)ncc1F	–	3250	–
CCc1ccnc(NC(=O)c2cc(Cl)cc(Oc3cncnc3)c2)c1	–	4450	–
Cc1nc(NC(=O)c2cc(Cl)cc(Oc3cncnc3)c2)ccc1F	–	50	–
O=C(Nc1ccc(Cl)cn1)c1cc(Cl)cc(Oc2cncnc2)c1	–	103	–
Cc1csc(NC(=O)c2cccc(Oc3cncnc3)c2)n1	–	205	–
COc1cccc(NC(=O)c2cc(F)cc(Oc3cncnc3)c2)n1	–	668	–
Cc1csc(NC(=O)c2cc(Cl)cc(Oc3cncnc3)c2)n1	–	–	IC50 (Cytochrome P450 3A4): 2200 nM; Fu (Brain [6]): 0.025
O=C(Nc1nc(C(F)F)cs1)c1cc(Cl)cc(Oc2cncnc2)c1	–	310	–
Cc1cccc(NC(=O)c2cc(Cl)cc(Oc3cncnc3)c2)n1	–	–	IC50 (Cytochrome P450 3A4): 4300 nM; Fu (Brain [6]): 0.052
O=C(Nc1cccc(F)n1)c1cc(Cl)cc(Oc2cncnc2)c1	–	–	IC50 (Cytochrome P450 3A4): < 100 nM; Fu (Brain [6]): 0.057
O=C(Nc1cccc(Cl)n1)c1cc(Cl)cc(Oc2cncnc2)c1	–	–	IC50 (Cytochrome P450 3A4): 1900 nM; Fu (Brain [6]): 0.019
Cc1cccc(NC(=O)c2cccc(Oc3cccnc3)c2)c1	1.4	2190	–
O=C(Nc1ccc(F)cn1)c1cccc(Oc2cccnc2)c1	–	3780	–

More lines, main results first:

%max [10] [%]	Structure (SMILES)	IC50 [1] [nM]	also measured
2.6	Cc1ncc(Oc2cc(Cl)cc(C(=O)Nc3ccc(F)cn3)c2)cn1	4470	–
1.6	Cc1cccc(NC(=O)c2cc(Cl)cc(Oc3cnc(C)nc3)c2)n1	96	–
1.6	Cc1cccc(NC(=O)c2cc(Cl)cc(Oc3cncc(C#N)c3)c2)n1	10	–
1.7	N#Cc1cncc(Oc2cc(Cl)cc(C(=O)Nc3ccc(F)cn3)c2)c1	27	IC50 (Cytochrome P450 3A4): 1700 nM; Fu (Brain [6]): 0.016
1.1	O=C(Nc1ccc(F)cn1)c1cc(Cl)cc(Oc2cncc(F)c2)c1	25	IC50 (Cytochrome P450 3A4): 1300 nM; Fu (Brain [6]): 0.007
1.3	Nc1cc(NC(=O)c2cccc(Cl)c2)cc(Oc2cccnc2)c1	284	–
1.1	N#Cc1cc(Oc2cncnc2)cc(C(=O)Nc2ccc(F)cn2)c1	318	–
3.2	O=C(Nc1ccc(F)cn1)c1cc(Oc2cncnc2)cc(C(F)(F)F)c1	5530	–
1.6	O=C(Nc1cccc(Cl)c1)c1cccc(Oc2cccnc2)c1	1960	–
1.8	Cc1cccc(NC(=O)c2cc(Cl)cc(Oc3cncc(F)c3)c2)n1	7.5	IC50 (Cytochrome P450 3A4): 700 nM; Fu (Brain [6]): 0.003
1.7	Cc1csc(NC(=O)c2cc(Oc3cncnc3)cc(C(F)(F)F)c2)n1	283	–

From ChEMBL document CHEMBL2439973, “Discovery of VU0409106: A negative allosteric modulator of mGlu5 with activity in a mouse model of anxiety” (Bioorg Med Chem Lett, 2013)
